Results from patent US7718190B2, “Self forming, thermodynamically stable liposomes and their applications” (priority 2000, dated 2010).

What was measured:
[1] = Spontaneous liposome formation of single lipids mixed with aqueous solution; type: physicochemical
Experimental: Lipids were tested at 2 weight percent in aqueous solution. Note that GDL means glycerol dilaurate, GDO means glycerol dioleate, GDM means glycerol dimyristate, GDP means glycerol dipalmitate, and GDS means glycerol distearate. For each lipid, the number after “PEG” indicates the numbers of C2H4O subunits in the PEG chain. The unsaturated dioleate lipids have similar packing parameters to the saturated dimyristate lipids.
Single lipids were tested for their ability to spontaneously form liposomes when mixed with an aqueous solution. PEG-12 GDO was obtained from Global 7 (New Jersey). All other lipids were synthesized for the experiment. For each experiment, water and lipid were separately equilibrated at the appropriate temperature. Two weight percent lipid was added to the aqueous solution, and the solution was analyzed for the presence of liposomes by optical light microscopy, cryo TEM, freeze fracture TEM, or hot stage microscopy.

[2] = Dissolution of compounds in PEG-12 Glyceryl Dioleate; type: physicochemical; conditions: for Dissolution in PEG-12 Glyceryl Dioleate (observation): before addition of water
Experimental: It will be appreciated that, while liposomes form spontaneously at the temperature of formation, cooling of liposomes after formation results in liposomes in trapped kinetic states. To minimize distortions in liposome structure upon such cooling, sterols such as cholesterol may be mixed with the lipid before liposome formation. It has been observed that cholesterol may be dissolved in PEG-12 GDO at up to about 10 percent by weight.
Methotrexate (Sigma) was dissolved in PEG-12 Glyceryl Dioleate and gently mixed for about 5 minutes. […] Deionized water was slowly added to the solution and gently mixed. The resultant mixture was a yellow, opaque solution.
Tretinoin (all-trans retinoic acid), 6 mg, was dissolved in 500 ul of PEG-12 Glyceryl Dioleate. […] Distilled water, 4.5 ml, was added to the mixture and gently mixed. This yielded a concentration of […]. […] This solution can easily be incorporated into a cream, gel or lotion dosage form.

PEG-12 Glyceryl Dioleate [PEG-12 GDO]
Spontaneous Liposomes at 20° C. ([1]; 2 weight percent lipid in aqueous solution, 20° C.): YES | Spontaneous Liposomes at 37° C. ([1]; 2 weight percent lipid in aqueous solution, 37° C.): YES | Spontaneous Liposomes at 60° C. ([1]; 2 weight percent lipid in aqueous solution, 60° C.): YES | Spontaneous liposome formation ([1]; all temperatures tested (20, 37, 60° C.)): spontaneously forms liposomes at all temperatures tested

CC1=C(/C=C/C(C)=C/C=C/C(C)=C/C(=O)O)C(C)(C)CCC1 [Tretinoin]
Dissolution in PEG-12 Glyceryl Dioleate (observation) [2]: Dissolution was complete

CC(C)CCC[C@@H](C)[C@H]1CC[C@H]2[C@@H]3CC=C4C[C@@H](O)CC[C@]4(C)[C@H]3CC[C@]12C [cholesterol]
Amount dissolved in PEG-12 GDO ([2]; in PEG-12 GDO): up to 10 percent by weight

CN(Cc1cnc2nc(N)nc(N)c2n1)c1ccc(C(=O)N[C@@H](CCC(=O)O)C(=O)O)cc1 [Methotrexate]
Dissolution in PEG-12 Glyceryl Dioleate (observation) [2]: clear solution
